Laboratory results as given in PubChem BioAssay AID1963433 (Molecular Pharmacology Branch, DTP, NCI, 2024).

Test system: 772245-204-R-J1-PDC complex spheroid growth
Assay: Anticancer human tumor 772245-204-R-J1-PDC patient-derived rhabdomyosarcoma cell line growth inhibition [Asc]
Conditions: for IC50: curve of first compound; for viability, T/C: stronger effect = lower value
Procedure, shortened: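 Concentration series start at each agent's clinical Cmax, or at 10 microM when none is established, and drop in half-log steps; agents are applied alone or together to complex spheroids built with HUVEC and hMSC.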

[1] = second compound 0.1 µM, first compound 0.0316 µM
[2] = second compound 0.1 µM, first compound 0.1 µM
[3] = second compound 0.1 µM, first compound 0.316 µM
[4] = second compound 0.1 µM, first compound 1 µM
[5] = second compound 0.1 µM, first compound 3.16 µM
[6] = second compound 0.1 µM, first compound 10 µM
[7] = second compound 0.316 µM, first compound 0.0316 µM
[8] = second compound 0.316 µM, first compound 0.1 µM
[9] = second compound 0.316 µM, first compound 0.316 µM
[10] = second compound 0.316 µM, first compound 1 µM
[11] = second compound 0.316 µM, first compound 3.16 µM
[12] = second compound 0.316 µM, first compound 10 µM
[13] = second compound 1 µM, first compound 0.0316 µM
[14] = second compound 1 µM, first compound 0.1 µM
[15] = second compound 1 µM, first compound 0.316 µM
[16] = second compound 1 µM, first compound 1 µM
[17] = second compound 1 µM, first compound 3.16 µM
[18] = second compound 1 µM, first compound 10 µM
[19] = second compound 3.16 µM, first compound 0.0316 µM
[20] = second compound 3.16 µM, first compound 0.1 µM
[21] = second compound 10 µM, first compound 0.0316 µM
[22] = second compound 10 µM, first compound 0.1 µM
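Note: compound exposure lasted seven days.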
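Throughout, for viability, T/C: 100% = DMSO vehicle control viability.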

Molecule `C=C(F)C(=O)N1CCN(c2nc(OCC3CCCN3C)nc3c2CCN(c2cccc4cccc(Cl)c24)C3)CC1CC#N` (stereo not given) + CNC(C)C(=O)NC1CN(S(=O)(=O)c2cccc(S(=O)(=O)N3CCC4CCC(C(=O)NC(c5ccccc5)c5ccccc5)N4C(=O)C(NC(=O)C(C)NC)C3)c2)CCC2CCC(C(=O)NC(c3ccccc3)c3ccccc3)N2C1=O has an IC50 (second compound 0.01 µM) of 5.51 µM, an IC50 (second compound 0.0316 µM) of 6.3 µM and an IC50 (second compound 0.1 µM) of 4.84 µM. The IC50 (second compound 0.316 µM) was 4.88 µM, the IC50 (second compound 1 µM) was 4.84 µM and the viability, T/C (second compound 0.01 µM, first compound 0.0316 µM) was 98.8%. The viability, T/C (second compound 0.01 µM, first compound 0.1 µM) was 102%, the viability, T/C (second compound 0.01 µM, first compound 0.316 µM) was 91.3% and the viability, T/C (second compound 0.01 µM, first compound 1 µM) was 108%. The viability, T/C (second compound 0.01 µM, first compound 3.16 µM) was 87.2%, the viability, T/C (second compound 0.01 µM, first compound 10 µM) was 9.53% and the viability, T/C (second compound 0.0316 µM, first compound 0.0316 µM) was 112%. It also gave a viability, T/C (second compound 0.0316 µM, first compound 0.1 µM) of 105%, a viability, T/C (second compound 0.0316 µM, first compound 0.316 µM) of 97.5% and a viability, T/C (second compound 0.0316 µM, first compound 1 µM) of 99.7%. For the same molecule, the viability, T/C (second compound 0.0316 µM, first compound 3.16 µM) was 97.6%, the viability, T/C (second compound 0.0316 µM, first compound 10 µM) was 18% and the viability, T/C [1] was 100%. The viability, T/C [2] was 91.1%, the viability, T/C [3] was 95% and the viability, T/C [4] was 94.4%. It also gave a viability, T/C [5] of 79.2%, a viability, T/C [6] of 0.25% and a viability, T/C [7] of 98%. It also gave a viability, T/C [8] of 94.1%, a viability, T/C [9] of 84.4% and a viability, T/C [10] of 105%. It also gave a viability, T/C [11] of 80.2%, a viability, T/C [12] of 0.26% and a viability, T/C [13] of 93.5%. For the same molecule, the viability, T/C [14] was 106%, the viability, T/C [15] was 87.1% and the viability, T/C [16] was 82.9%. For the same molecule, the viability, T/C [17] was 81.4% and the viability, T/C [18] was 0.98%.
`CCN1C(C(=O)NC23CCC(C(=O)O)(CC2)CC3)C(c2cccc(Cl)c2F)C2(C(=O)Nc3cc(Cl)ccc32)C12CCCCC2` (stereo not given) + CNC(C)C(=O)NC1CN(S(=O)(=O)c2cccc(S(=O)(=O)N3CCC4CCC(C(=O)NC(c5ccccc5)c5ccccc5)N4C(=O)C(NC(=O)C(C)NC)C3)c2)CCC2CCC(C(=O)NC(c3ccccc3)c3ccccc3)N2C1=O was tested, and the IC50 (second compound 0.01 µM) was > 3 µM, the IC50 (second compound 0.0316 µM) was > 3 µM and the IC50 (second compound 0.1 µM) was > 3 µM. For the same molecule, the IC50 (second compound 0.316 µM) was > 3 µM, the IC50 (second compound 1 µM) was > 3 µM and the viability, T/C (second compound 0.01 µM, first compound 0.00949 µM) was 103%. The viability, T/C (second compound 0.01 µM, first compound 0.03 µM) was 106%, the viability, T/C (second compound 0.01 µM, first compound 0.0949 µM) was 111% and the viability, T/C (second compound 0.01 µM, first compound 0.3 µM) was 96.1%. For the same molecule, the viability, T/C (second compound 0.01 µM, first compound 0.949 µM) was 80.3%, the viability, T/C (second compound 0.01 µM, first compound 3 µM) was 77.4% and the viability, T/C (second compound 0.0316 µM, first compound 0.00949 µM) was 97.7%. It also gave a viability, T/C (second compound 0.0316 µM, first compound 0.03 µM) of 105%, a viability, T/C (second compound 0.0316 µM, first compound 0.0949 µM) of 98.2% and a viability, T/C (second compound 0.0316 µM, first compound 0.3 µM) of 90.9%. For the same molecule, the viability, T/C (second compound 0.0316 µM, first compound 0.949 µM) was 93.3%, the viability, T/C (second compound 0.0316 µM, first compound 3 µM) was 75.7% and the viability, T/C (second compound 0.1 µM, first compound 0.00949 µM) was 97.9%. For the same molecule, the viability, T/C (second compound 0.1 µM, first compound 0.03 µM) was 102%, the viability, T/C (second compound 0.1 µM, first compound 0.0949 µM) was 88.5% and the viability, T/C (second compound 0.1 µM, first compound 0.3 µM) was 91%. The viability, T/C (second compound 0.1 µM, first compound 0.949 µM) was 82.2%, the viability, T/C (second compound 0.1 µM, first compound 3 µM) was 65.2% and the viability, T/C (second compound 0.316 µM, first compound 0.00949 µM) was 96.6%. For the same molecule, the viability, T/C (second compound 0.316 µM, first compound 0.03 µM) was 96.4%, the viability, T/C (second compound 0.316 µM, first compound 0.0949 µM) was 98.6% and the viability, T/C (second compound 0.316 µM, first compound 0.3 µM) was 92.3%. It also gave a viability, T/C (second compound 0.316 µM, first compound 0.949 µM) of 86.8%, a viability, T/C (second compound 0.316 µM, first compound 3 µM) of 105% and a viability, T/C (second compound 1 µM, first compound 0.00949 µM) of 103%. It also gave a viability, T/C (second compound 1 µM, first compound 0.03 µM) of 105%, a viability, T/C (second compound 1 µM, first compound 0.0949 µM) of 96.2% and a viability, T/C (second compound 1 µM, first compound 0.3 µM) of 89.1%. The viability, T/C (second compound 1 µM, first compound 0.949 µM) was 86.4% and the viability, T/C (second compound 1 µM, first compound 3 µM) was 76.3%.
For `Cn1ncnc1[C@H]1c2n[nH]c(=O)c3cc(F)cc(c23)N[C@@H]1c1ccc(F)cc1` + Cc1c(S(C)(=O)=O)c(-c2cc(F)cc(N3CCN(c4ccc(NS(=O)(=O)c5ccc(NC(CCN6CCC(C(=O)OCCCP(=O)(O)O)CC6)CSc6ccccc6)c(S(=O)(=O)C(F)(F)F)c5)cc4)CC3)c2)c(-c2ccc(Cl)cc2)n1C(C)C, the IC50 (second compound 0.1 µM) was > 0.1 µM, the IC50 (second compound 0.316 µM) was 0.00384 µM and the IC50 (second compound 1 µM) was 0.00123 µM. The IC50 (second compound 3.16 µM) was < 0.000316 µM, the IC50 (second compound 10 µM) was < 0.000316 µM and the viability, T/C (second compound 0.1 µM, first compound 0.000316 µM) was 73.2%. It also gave a viability, T/C (second compound 0.1 µM, first compound 0.001 µM) of 77.1%, a viability, T/C (second compound 0.1 µM, first compound 0.00316 µM) of 70.5% and a viability, T/C (second compound 0.1 µM, first compound 0.01 µM) of 63.3%. For the same molecule, the viability, T/C [1] was 58.9%, the viability, T/C [2] was 55% and the viability, T/C (second compound 0.316 µM, first compound 0.000316 µM) was 61.4%. For the same molecule, the viability, T/C (second compound 0.316 µM, first compound 0.001 µM) was 58.8%, the viability, T/C (second compound 0.316 µM, first compound 0.00316 µM) was 53.3% and the viability, T/C (second compound 0.316 µM, first compound 0.01 µM) was 37%. The viability, T/C [7] was 29.2%, the viability, T/C [8] was 23.6% and the viability, T/C (second compound 1 µM, first compound 0.000316 µM) was 47.1%. It also gave a viability, T/C (second compound 1 µM, first compound 0.001 µM) of 58.7%, a viability, T/C (second compound 1 µM, first compound 0.00316 µM) of 37% and a viability, T/C (second compound 1 µM, first compound 0.01 µM) of 15.5%. The viability, T/C [13] was 25.8%, the viability, T/C [14] was 15.2% and the viability, T/C (second compound 3.16 µM, first compound 0.000316 µM) was 34.2%. It also gave a viability, T/C (second compound 3.16 µM, first compound 0.001 µM) of 44.3%, a viability, T/C (second compound 3.16 µM, first compound 0.00316 µM) of 33.3% and a viability, T/C (second compound 3.16 µM, first compound 0.01 µM) of 19.7%. It also gave a viability, T/C [19] of 12.5%, a viability, T/C [20] of 10.6% and a viability, T/C (second compound 10 µM, first compound 0.000316 µM) of 40.9%. For the same molecule, the viability, T/C (second compound 10 µM, first compound 0.001 µM) was 34.6%, the viability, T/C (second compound 10 µM, first compound 0.00316 µM) was 27.7% and the viability, T/C (second compound 10 µM, first compound 0.01 µM) was 13.2%. It also gave a viability, T/C [21] of 11.1% and a viability, T/C [22] of 12%.
With `O=C(c1cc(Cc2n[nH]c(=O)c3ccccc23)ccc1F)N1CCN(C(=O)C2CC2)CC1` + Cc1c(S(C)(=O)=O)c(-c2cc(F)cc(N3CCN(c4ccc(NS(=O)(=O)c5ccc(NC(CCN6CCC(C(=O)OCCCP(=O)(O)O)CC6)CSc6ccccc6)c(S(=O)(=O)C(F)(F)F)c5)cc4)CC3)c2)c(-c2ccc(Cl)cc2)n1C(C)C the IC50 (second compound 0.1 µM) was 3.27 µM, the IC50 (second compound 0.316 µM) was 0.435 µM and the IC50 (second compound 1 µM) was 0.0445 µM. For the same molecule, the IC50 (second compound 3.16 µM) was < 0.0316 µM, the IC50 (second compound 10 µM) was < 0.0316 µM and the viability, T/C [1] was 76.8%. For the same molecule, the viability, T/C [2] was 81.5%, the viability, T/C [3] was 83.2% and the viability, T/C [4] was 63.6%. For the same molecule, the viability, T/C [5] was 52.7%, the viability, T/C [6] was 34.3% and the viability, T/C [7] was 62.8%. The viability, T/C [8] was 50.5%, the viability, T/C [9] was 44.2% and the viability, T/C [10] was 54.5%. For the same molecule, the viability, T/C [11] was 28.5%, the viability, T/C [12] was 10.6% and the viability, T/C [13] was 52.1%. The viability, T/C [14] was 46.8%, the viability, T/C [15] was 46.9% and the viability, T/C [16] was 30.7%. It also gave a viability, T/C [17] of 12.8%, a viability, T/C [18] of 6.31% and a viability, T/C [19] of 26.3%. The viability, T/C [20] was 36.3%, the viability, T/C (second compound 3.16 µM, first compound 0.316 µM) was 33.9% and the viability, T/C (second compound 3.16 µM, first compound 1 µM) was 22%. It also gave a viability, T/C (second compound 3.16 µM, first compound 3.16 µM) of 6.64%, a viability, T/C (second compound 3.16 µM, first compound 10 µM) of 2.64% and a viability, T/C [21] of 34.8%. For the same molecule, the viability, T/C [22] was 47.2%, the viability, T/C (second compound 10 µM, first compound 0.316 µM) was 33.8% and the viability, T/C (second compound 10 µM, first compound 1 µM) was 17.4%. For the same molecule, the viability, T/C (second compound 10 µM, first compound 3.16 µM) was 13.3% and the viability, T/C (second compound 10 µM, first compound 10 µM) was 6.24%.
